In patent US20240238425A1, “HSD17B13 Inhibitors and/or Degraders” (Pfizer Inc., priority 2022, published 2024):
Structures can show the parent of a compound that is named as a salt.

Tested on: HiBiT-HSD17β13 fusion protein (N-terminal HiBiT-tagged HSD17β13 isoform D) in Huh7 HiBiT-HSD17β13 OE cells
Assay: Whole-cell Huh7-HSD17B13 HiBiT assay (degrader potency and maximal efficacy, luminescence readout)
Format: cell-based, human
Conditions: 24 hour incubation, geometric mean, * = geometric mean for all forms tested (parent and salt forms); for DC50: read-out: Huh7_HIBIT-HSD17β13_DC50 GMean DC50; for Huh7_HIBIT-HSD17β13_DC50 GMean Asymptote Maximum: max. concentration 1 μM
How it was run: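 Luminescence from lytic HiBiT detection tracked residual HiBiT-HSD17β13 (isoform D, N-terminal tag) in a stable Huh7 overexpressing clone after 24 h compound treatment at 37° C, 11 concentrations up to 1 μM final. Percent effect used DMSO (zero) and parental Huh7 (high) wells; four-parameter fit gave 50% degradation; viability checked by CellTiter-Glo.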

| SMILES | DC50 [nM] | Huh7_HIBIT-HSD17β13_DC50 GMean Asymptote Maximum |
| --- | --- | --- |
| Cc1ccc(C(=O)N2CCN(CCOc3ncc(-c4ccc5cn(C6CCC(CNC(=O)c7cc(F)c(O)c(F)c7F)CC6)nc5c4)cn3)CC2)cc1N1CCC(=O)NC1=O.O=C(O)C(F)(F)F (stereo not shown) [Example 7, N-{[(1r,4r)-4-{6-[2-(2-{4-[3-(2,4-Dioxo-1,3-diazinan-1-yl)-4-methylbenzoyl]piperazin-1-yl}ethoxy)pyrimidin-5-yl]-2H-indazol-2-yl}cyclohexyl]methyl}-2,3,5-trifluoro-4-hydroxybenzamide, trifluoroacetate salt] | 3 | 78* % |
| Cn1c(=O)n(C2CCC(=O)NC2=O)c2ccc(CCN3CCC(F)(Cc4ccc5cn([C@H]6CC[C@H](CNC(=O)c7cc(F)c(O)c(F)c7F)CC6)nc5c4)CC3)cc21 (mixture of isomers) [Example 44, N-{[(1r,4r)-4-(6-{[1-(2-{1-[(3RS)-2,6-dioxopiperidin-3-yl]-3-methyl-2-oxo-2,3-dihydro-1H-benzimidazol-5-yl}ethyl)-4-fluoropiperidin-4-yl]methyl}-2H-indazol-2-yl)cyclohexyl]methyl}-2,3,5-trifluoro-4-hydroxybenzamide, trifluoroacetate salt] | 1.5 | 84% |
| Cn1c(=O)n(C2CCC(=O)NC2=O)c2ccc(CN3CCOC4(C3)CN(c3ncc(-c5ccc6cn([C@H]7CC[C@H](CNC(=O)c8cc(F)c(O)c(F)c8F)CC7)nc6c5)cn3)C4)cc21 (mixture of isomers) [Example 78, N-{[(1r,4r)-4-(6-{2-[8-({1-[(3RS)-2,6-dioxopiperidin-3-yl]-3-methyl-2-oxo-2,3-dihydro-1H-benzimidazol-5-yl}methyl)-5-oxa-2,8-diazaspiro[3.5]nonan-2-yl]pyrimidin-5-yl}-2H-indazol-2-yl)cyclohexyl]methyl}-2,3,5-trifluoro-4-hydroxybenzamide, trifluoroacetate salt] | 0.47 | 78% |
| Cn1c(=O)n(C2CCC(=O)NC2=O)c2ccc(CCCN3CCOC4(C3)CN(c3ncc(-c5ccc6cn(C7CCC(CNC(=O)c8cc(F)c(O)c(F)c8F)CC7)nc6c5)cn3)C4)cc21.O=C(O)C(F)(F)F (racemic) [Example 13, N-{[(1r,4r)-4-(6-{2-[8-(3-{1-[(3RS)-2,6-Dioxopiperidin-3-yl]-3-methyl-2-oxo-2,3-dihydro-1H-benzimidazol-5-yl}propyl)-5-oxa-2,8-diazaspiro[3.5]nonan-2-yl]pyrimidin-5-yl}-2H-indazol-2-yl)cyclohexyl]methyl}-2,3,5-trifluoro-4-hydroxybenzamide, trifluoroacetate salt] | 0.14 | 81% |
| Cl.Cn1c(=O)n(C2CCC(=O)NC2=O)c2ccc(CCN3CCN(c4cnc(-c5ccc6cn(C7CCC(CNC(=O)c8cc(F)c(O)c(F)c8F)CC7)nc6c5)cn4)CC3)cc21 (racemic) [Example 8, N-{[(1r,4r)-4-(6-{5-[4-(2-{1-[(3RS)-2,6-Dioxopiperidin-3-yl]-3-methyl-2-oxo-2,3-dihydro-1H-benzimidazol-5-yl}ethyl)piperazin-1-yl]pyrazin-2-yl}-2H-indazol-2-yl)cyclohexyl]methyl}-2,3,5-trifluoro-4-hydroxybenzamide, hydrochloride salt] | 0.21 | 87* % |
| O=C1CCN(c2cc(C(=O)N3CCN(CC4CCN(c5ncc(-c6ccc7cn([C@H]8CC[C@H](CNC(=O)c9cc(F)c(O)c(F)c9F)CC8)nc7c6)cn5)CC4)CC3)ccc2Cl)C(=O)N1 [Example 108, N-{[(1r,4r)-4-(6-{2-[4-({4-[4-chloro-3-(2,4-dioxo-1,3-diazinan-1-yl)benzoyl]piperazin-1-yl}methyl)piperidin-1-yl]pyrimidin-5-yl}-2H-indazol-2-yl)cyclohexyl]methyl}-2,3,5-trifluoro-4-hydroxybenzamide] | 1.3 | 80% |

Second part, led by results:

| DC50 [nM] | SMILES | Huh7_HIBIT-HSD17β13_DC50 GMean Asymptote Maximum |
| --- | --- | --- |
| 3.2 | Cc1ccc(C(=O)N2CCN(CCOc3ncc(-c4ccc5cn(C67CCC(CNC(=O)c8cc(F)c(O)c(F)c8F)(CC6)CC7)nc5c4)cn3)CC2)cc1N1CCC(=O)NC1=O [Example 91, N-[(4-{6-[2-(2-{4-[3-(2,4-dioxo-1,3-diazinan-1-yl)-4-methylbenzoyl]piperazin-1-yl}ethoxy)pyrimidin-5-yl]-2H-indazol-2-yl}bicyclo[2.2.2]octan-1-yl)methyl]-2,3,5-trifluoro-4-hydroxybenzamide] | 73% |
| 0.82 | Cl.Cn1c(=O)n(C2CCC(=O)NC2=O)c2ccc(CCCN3CCN(c4ccc5cn([C@H]6CC[C@H](CNC(=O)c7cc(F)c(O)c(F)c7F)CC6)nc5c4)CC3)cc21 (mixture of isomers) [Example 27, N-{[(1r,4r)-4-{6-[4-(3-{1-[(3RS)-2,6-dioxopiperidin-3-yl]-3-methyl-2-oxo-2,3-dihydro-1H-benzimidazol-5-yl}propyl)piperazin-1-yl]-2H-indazol-2-yl}cyclohexyl]methyl}-2,3,5-trifluoro-4-hydroxybenzamide, hydrochloride salt] | 86% |
| 0.27 | COc1c(C(=O)NC[C@]23CC[C@](c4noc(-c5ccnc(N6CCN(CCCc7ccc8c(c7)n(C)c(=O)n8C7CCC(=O)NC7=O)CC6)n5)n4)(CC2)CC3)cc(F)c(O)c1F (mixture of isomers) [Example 124, N-{[4-(5-{2-[4-(3-{1-[(3RS)-2,6-dioxopiperidin-3-yl]-3-methyl-2-oxo-2,3-dihydro-1H-benzimidazol-5-yl}propyl)piperazin-1-yl]pyrimidin-4-yl}-1,2,4-oxadiazol-3-yl)bicyclo[2.2.2]octan-1-yl]methyl}-3,5-difluoro-4-hydroxy-2-methoxybenzamide, trifluoroacetate salt] | 72% |
| 1.6 | O=C1CCC(N2Cc3cc(N4CCC(CCN5CCN(c6nccc(-c7nc([C@]89CC[C@](CNC(=O)c%10cc(F)c(O)c(F)c%10F)(CC8)CC9)no7)n6)CC5)CC4)ccc3C2=O)C(=O)N1 (mixture of isomers) [Example 132, N-({4-[5-(2-{4-[2-(1-{2-[(3RS)-2,6-dioxopiperidin-3-yl]-1-oxo-2,3-dihydro-1H-isoindol-5-yl}piperidin-4-yl)ethyl]piperazin-1-yl}pyrimidin-4-yl)-1,2,4-oxadiazol-3-yl]bicyclo[2.2.2]octan-1-yl}methyl)-2,3,5-trifluoro-4-hydroxybenzamide, trifluoroacetate salt] | 82% |
| 0.26 | Cl.Cn1c(=O)n(C2CCC(=O)NC2=O)c2ccc(CCN3CCN(c4ccc5cn(C6CCC(CNC(=O)c7cc(F)c(O)c(F)c7F)CC6)nc5c4)CC3)cc21 (racemic) [Example 9, N-{[(1r,4r)-4-{6-[4-(2-{1-[(3RS)-2,6-Dioxopiperidin-3-yl]-3-methyl-2-oxo-2,3-dihydro-1H-benzimidazol-5-yl}ethyl)piperazin-1-yl]-2H-indazol-2-yl}cyclohexyl]methyl}-2,3,5-trifluoro-4-hydroxybenzamide, hydrochloride salt] | 83* % |
